The text below walks through data of patent EP4644375A1, “SUBSTITUTED HYDROQUINOLINES FOR THE TREATMENT OF GLIOBLASTOMA MULTIFORME” (Molius Saglik Teknolojileri Anonim Sirketi, priority 2024, dated 2025).

Data set [1] is described as follows: In vivo GBM rat model: plasma chemistry. Particulars: GBM rats, 30 mg/kg oral, 5 days, plasma at necropsy. As to the method: (§1) The parameters that were analysed can be seen in Table 11.
Data set [2] can be described thus: Peripheral blood micronucleus assay. Format: in vivo, Rat. As to the method:
Blood smears were made on clean microscope slides, allowed to air-dry, treated with methanol for fixation, and then stained with Giemsa (10% in 0.1 mM of sodium phosphate buffer, pH 6.8) for 10 min. After washing with PBS, the slides were examined under a light microscope. The frequencies of micronuclei (MN) were calculated by evaluating 1000 cells per animal.

The nature of data set [3]: In vivo GBM rat model: body weight. Conditions: treated GBM rats compared to the GBM rats, 30 mg/kg oral, 5 days. As to the method: (§2) An in Vivo study was performed to assess the therapeutic potential of TR-G002, TR-G045, TR-G053, TR-G066, TR-G071 and TR-G091 in the GBM xenograft rat model when administered orally by gavage for five consecutive days. 152 female rats of the Sprague Dawley strain were allocated to the study. Six groups of sixteen females were given dose of 30 mg/kg of the respective target compounds. […] The study design can be seen in Fig. 11 and Table 10.
Individual body weights were manually calculated. Group mean body weights; group mean body weight changes and organ weights were also manually calculated without statistical analysis. To determine the density of positive staining from immunohistochemical and immunofluorescence staining images, five randomly selected areas were evaluated using ZEISS Zen Imaging Software. Data were statistically defined as mean and standard deviation (mean ± SD) for the percentage of the area. One-way ANOVA followed by the Tukey test was performed to compare immunoreactive cells and immune-positive stained areas with healthy controls. GraphPad Prism software was used for analysis.

In data set [4] the test system is U138-MG human glioma cell. Nature of the data set: Cell proliferation analysis (MTT). It counts as cell-based. Conditions: MTT; for activity at 10 µM / inhibition at 10 µM: Homo sapiens, 48 h, two days.
Data set [5] concerns U87-MG human glioma cell. As to the kind of experiment: Cell proliferation analysis (MTT). Format: cell-based. Particulars: MTT; for activity at 10 µM / inhibition at 10 µM: Homo sapiens, U-87 MG, 48 h, two days.
The nature of data set [6]: In vivo GBM rat model: haematology. Here is the method: as §1
The nature of data set [7]: PAMPA permeability assay, gastrointestinal mimicking membrane. Particulars: 500 µM, 18 hours, 37 °C. For orientation: In PAMPA a lipid-coated filter parts donor from acceptor wells.
Experimental: Permeability assay and analyses were performed according to the manufacturer's instructions. […] After the loading of lipid solutions into the pores, all drug solutions and the permeability controls were put onto the lipid membrane in donor wells. The permeability assay was performed for 18 hours at 37 °C incubator. All samples were collected from acceptor wells after the incubation period was finished and the absorbance values were measured with equilibrium standards for normalization.
The subject of data set [8] is GBM xenograft rat model. As to the kind of experiment: In vivo GBM rat model: MRI analysis of tumor volumes. Particulars: GBM rats, 30 mg/kg oral, 5 days, MRI 14th vs 28th day. As to the method:
as §2
Female Sprague Dawley rats (age: 6-8 weeks; weight: 255-310 g; ATADEM, Erzurum, Turkey) were utilized in the study. Rats underwent anaesthesia with 5% isoflurane, maintained at 2% isoflurane (1 L/min oxygen), and were positioned in a stereotactic frame for cell implantation (Stoelting Co., IL). […] A burr hole was drilled 1-mm anterior and 3-mm lateral to the right bregma. A microsyringe (Hamilton 1700 series) containing 5×10^4 U87-MG cells suspended in 5 µL of medium at 37 °C was advanced to a depth of 4 mm into the brain. The cells were injected at a rate of 3 µL/ min. Bone wax was used to fill the burr hole to prevent cell suspension reflux. The incision was sutured, and 1 mL of Meloxicam (5 mg/mL; Metacam, Boehringer Ingelheim Vetmedica, Ingelheim, Germany) was administered via a subcutaneous injection.
Fourteen days after inoculation, tumor development in rats was visualized and confirmed through magnetic resonance imaging (MRI). Rats confirmed to have developed tumors were then distributed into six different groups for treatment. […] 9 days after the final treatment dose, the rats underwent another MRI scan and blood and brain samples were taken under anaesthesia.
The anaesthetic was administered via an intraperitoneal route on animals fixed in the supine position with parallel hind limbs. MRI was performed using a 3 Tesla clinical scanner (Magnetom Skyra; Siemens Healthineers, Erlangen, Germany). Rats were placed in the prone position. T2-SPACE (sampling perfection with application-optimized contrast using different flip angle Evolution) sequence was obtained to view the brain in coronal and transverse planes. (TR: 6000 ms, TE: 100 ms, voxel size: 0.5 × 0.5 × 1 mm, 34 slices, slice thickness: 2 mm, slice spacing: 0.6 mm). The volume measurements of brain tumors were performed manually. One radiologist calculated the tumour volume - manually measuring tumour length (L), width (W), and height (H) - and then calculated the tumour volume using the formula 0.5236 × L × W × H (Stuppner S et al., 2020).

The mark [9] stands for this setting: GBM rats, 30 mg/kg oral, 5 days, blood at necropsy.

In data set [1], `Cn1nnc2c(C(N)=O)ncn2c1=O` [TMZ, Temozolomide, reference compound] displayed an ALP of 128.7 IU/L, an ALT of 42.4 IU/L, an AST of 114.63 IU/L and a GLU of 311 mg/dL. Also, in data set [1], the LDH came to 499.85 IU/L, the “LDL C” value is 5.12 mmol/L and the TG was found to be 111 mg/dL. This compound yielded an MN frequency in data set [2] (GBM rats, 30 mg/kg oral, 5 days, 1000 cells per animal evaluated) of 14.32 ± 3.10. In data set [2] (treated GBM rats), the “MN frequency (comparison)” value is given as “highest observed MN frequency”. In addition, in data set [3], the body weight entry was “No significant change in body weight”. Also, in data set [4] (reference drugs), the “Inhibition (%)” value amounted to 22% and the “Proliferation (%)” value was 78%. For the same compound, in data set [5] (reference drugs), the “Inhibition (%)” value came to 20% and the “Proliferation (%)” value turned out to be 80%. In data set [6] (setting [9]), this compound displayed an HCT of 48.13%, an HGB of 15.13 g/dL, an MCH of 18.10 pg and an MCHC of 31.47 g/dL. Further, in data set [6] (setting [9]), the MCV worked out at 57.55 fL, the PLT is given as 829.67 10^9 /L, the RBC is recorded as 8.36 10^12/L and the WBC is reported as 4.92 10^9/L. Moreover, the PLT levels entry in data set [6] (compared to GBM rats) is “no significant changes”. Further, the WBC level result in data set [6] (compared to the GBM rats) is on record as “did not cause any significant changes”.
Regarding `C#CCOc1ccc2c(c1)CCC(=O)N2` [TR-G006, 6-(prop-2-yn-1-yloxy)-3,4-dihydroquinolin-2(1H)-one], the “permeability through the gastrointestinal mimicking membrane” value in data set [7] was “highly permeable”. Further, in data set [4], the activity at 10 µM was 86% and 10 µM produced 14% inhibition. Besides, in data set [5], the activity at 10 µM came out at 86% and the inhibition (as a rule, how much of the control response was suppressed) at 10 µM came to 14%.
Turning to `C=CCOc1ccc2c(c1)CCC(=O)N2` [TR-G014, 6-(allyloxy)-3,4-dihydroquinolin-2(1H)-one], in data set [7], the “permeability through the gastrointestinal mimicking membrane” value is “highly permeable”. Also, in data set [4], the activity at 10 µM amounted to 51% and the inhibition at 10 µM is 49%. In data set [5], this compound showed an activity at 10 µM of 82% and an inhibition at 10 µM of 18%.
The like results for `O=C(COc1ccc2c(c1)CCC(=O)N2)NN=Cc1cccs1` [TR-G024, 2-((2-oxo-1,2,3,4-tetrahydroquinolin-6-yl)oxy)-N'-(thiophen-2-ylmethylene)acetohydrazide] were, in that order, “highly permeable”, 70%, 30%, 80% and 20%.
In the case of `O=C1CCc2cc(OS(=O)(=O)c3ccc([N+](=O)[O-])cc3)ccc2N1` [TR-G046, 2-oxo-1,2,3,4-tetrahydroquinolin-6-yl 4-nitrobenzenesulfonate], the tumor size entry in data set [8] is “reduced the tumor size”. In data set [4], this compound registered an activity at 10 µM of 76% and an inhibition at 10 µM of 24%. In data set [5], this compound came in with an activity at 10 µM of 60% and an inhibition at 10 µM of 40%.
On to `CN(C(=O)Oc1ccc2c(c1)CCC(=O)N2)c1ccccc1` [TR-G072, 2-oxo-1,2,3,4-tetrahydroquinolin-6-yl methyl(phenyl)carbamate], for which the “permeability through the gastrointestinal mimicking membrane” value in data set [7] is given as “highly permeable”. Moreover, in data set [4], the activity at 10 µM amounted to 85% and the inhibition at 10 µM came out at 15%. In data set [5], this compound showed an activity at 10 µM of 85% and an inhibition at 10 µM of 15%.
As for `Cc1ccc(F)cc1NC(=O)Oc1ccc2c(c1)CCC(=O)N2` [TR-G097, 2-oxo-1,2,3,4-tetrahydroquinolin-6-yl (5-fluoro-2-methylphenyl)carbamate], the “permeability through the gastrointestinal mimicking membrane” value in data set [7] was “highly permeable”. Besides, in data set [4], the activity at 10 µM was 73% and the inhibition at 10 µM amounted to 27%. In data set [5], this compound came in with an activity at 10 µM of 79% and an inhibition at 10 µM of 21%.
In the case of `O=C(COc1ccc2c(c1)CCC(=O)N2)N/N=C/c1ccc(F)cc1` [TR-G128, (E)-N'-(4-fluorobenzylidene)-2-((2-oxo-1,2,3,4-tetrahydroquinolin-6-yl)oxy)acetohydrazide], the “permeability through the gastrointestinal mimicking membrane” value in data set [7] is recorded as “highly permeable”. In data set [4], this compound showed an activity at 10 µM of 68% and an inhibition at 10 µM of 32%. In data set [5], the activity at 10 µM came to 68% and 10 µM produced 32% inhibition.
